# Results taken from BindingDB's records for doi:10.1002/cbic.200400099 (Technische UniversitÄT Braunschweig, 2005).
# What was measured:
# Assay in all cases: Kinase Assay
# Details in all cases: pH 7.5; 30 °C
# [1] = target: Glycogen synthase kinase-3 beta (Homo sapiens, UniProt P49841)
# Description: (§1) Kinase activity assay using GSK-3beta, CDK1/cyclin B and CDK5/p25.
# [2] = target: Cyclin-dependent kinase 1 (Homo sapiens, UniProt P06493)
# Description: as §1
# [3] = target: Cyclin-dependent kinase 5 (Homo sapiens, UniProt Q00535)
# Chain of Cyclin-dependent kinase 5 (Q00535 whole entry): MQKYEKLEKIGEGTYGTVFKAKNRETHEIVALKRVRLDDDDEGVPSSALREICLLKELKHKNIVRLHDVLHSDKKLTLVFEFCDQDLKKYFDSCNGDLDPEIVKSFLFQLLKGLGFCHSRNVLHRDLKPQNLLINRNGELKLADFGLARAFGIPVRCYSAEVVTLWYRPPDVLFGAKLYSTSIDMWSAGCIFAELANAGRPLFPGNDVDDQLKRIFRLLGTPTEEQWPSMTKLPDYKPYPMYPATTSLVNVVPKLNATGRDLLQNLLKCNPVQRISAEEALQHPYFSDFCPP
# Description: as §1
# Chain of Cyclin-dependent kinase 1 (P06493 whole entry): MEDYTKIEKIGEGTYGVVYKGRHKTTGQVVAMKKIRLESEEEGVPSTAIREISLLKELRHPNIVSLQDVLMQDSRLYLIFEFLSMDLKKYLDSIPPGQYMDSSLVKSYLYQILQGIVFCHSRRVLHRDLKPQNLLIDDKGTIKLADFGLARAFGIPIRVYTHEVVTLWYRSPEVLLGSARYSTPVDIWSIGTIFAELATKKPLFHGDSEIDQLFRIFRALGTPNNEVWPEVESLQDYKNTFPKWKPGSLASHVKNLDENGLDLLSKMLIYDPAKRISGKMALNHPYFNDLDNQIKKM
# Chain of Glycogen synthase kinase-3 beta (P49841 whole entry): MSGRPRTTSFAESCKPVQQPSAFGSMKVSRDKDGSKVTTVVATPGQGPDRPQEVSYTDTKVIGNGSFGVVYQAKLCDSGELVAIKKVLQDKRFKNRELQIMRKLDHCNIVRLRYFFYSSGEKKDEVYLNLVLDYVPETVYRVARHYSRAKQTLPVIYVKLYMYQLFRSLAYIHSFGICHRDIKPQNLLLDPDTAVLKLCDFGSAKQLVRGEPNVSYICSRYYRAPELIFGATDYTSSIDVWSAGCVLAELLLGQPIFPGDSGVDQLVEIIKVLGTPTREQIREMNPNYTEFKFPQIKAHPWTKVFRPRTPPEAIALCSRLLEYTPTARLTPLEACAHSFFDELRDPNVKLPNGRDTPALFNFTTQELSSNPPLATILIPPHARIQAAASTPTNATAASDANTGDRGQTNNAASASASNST
Compound,IC50 [1],IC50 [2],IC50 [3]
N#CCCc1ccc2c(c1)-c1[nH]c3ccc([N+](=O)[O-])cc3c1CC(=O)N2,0.8 nM,0.23 nM,30 nM
"O=C(O)CCc1ccc2c(c1)-c1[nH]c3ccc([N+](=O)[O-])cc3c1CC(=O)N2 [Alsterpaullone derivative, 5]",6.5 nM,25 nM,80 nM
"COC(=O)CCc1ccc2c(c1)-c1[nH]c3ccc([N+](=O)[O-])cc3c1CC(=O)N2 [Alsterpaullone derivative, 6]",34 nM,100 nM,250 nM

# Continued, values first:
IC50 [1],IC50 [2],IC50 [3],Compound
6 nM,80 nM,70 nM,"NCCCCc1ccc2c(c1)-c1[nH]c3ccc([N+](=O)[O-])cc3c1CC(=O)N2 [Alsterpaullone derivative, 3]"
2.5 nM,27 nM,23 nM,"NCCCc1ccc2c(c1)-c1[nH]c3ccc([N+](=O)[O-])cc3c1CC(=O)N2 [Alsterpaullone derivative, 4]"
